Paper PMC12305662, “Fragment-Based Development of Small Molecule Inhibitors Targeting Mycobacterium tuberculosis Cholesterol Metabolism” (Journal of Medicinal Chemistry, 2025)
Converted amounts (≈) assume the structure as drawn. Read-outs that look alike come from different tables or passages of the source.

Columns and labels:
CYP125 [1] = target: T1, CYP125 (Mycobacterium tuberculosis, UniProt P9WPP1); assay type: binding; conditions: for CYP125 Δλmax (nm) LS: low spin population, '-' = no LS maxima present
T1 sequence (P9WPP1 whole entry): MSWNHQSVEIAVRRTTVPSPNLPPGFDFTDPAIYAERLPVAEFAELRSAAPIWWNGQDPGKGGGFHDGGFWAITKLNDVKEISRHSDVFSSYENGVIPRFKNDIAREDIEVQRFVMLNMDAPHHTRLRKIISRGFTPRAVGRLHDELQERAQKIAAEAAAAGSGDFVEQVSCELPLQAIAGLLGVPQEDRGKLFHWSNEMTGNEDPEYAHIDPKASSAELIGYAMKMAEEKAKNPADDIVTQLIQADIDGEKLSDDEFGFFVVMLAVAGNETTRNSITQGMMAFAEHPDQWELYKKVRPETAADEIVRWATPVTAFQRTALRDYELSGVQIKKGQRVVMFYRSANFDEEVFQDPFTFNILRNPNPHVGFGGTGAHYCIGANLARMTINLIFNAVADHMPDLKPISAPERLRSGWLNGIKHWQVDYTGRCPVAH

CYP125 [2] = target: T1, CYP125; assay: biochemical; assay type: binding; conditions: read-out: KD (μM) CYP125
CYP142 [3] = target: T2, CYP142 (Mycobacterium tuberculosis, UniProt P9WPL5); conditions: for CYP142 Δλmax (nm): compound 100 µM, P450 5 µM
T2 sequence (P9WPL5 whole entry): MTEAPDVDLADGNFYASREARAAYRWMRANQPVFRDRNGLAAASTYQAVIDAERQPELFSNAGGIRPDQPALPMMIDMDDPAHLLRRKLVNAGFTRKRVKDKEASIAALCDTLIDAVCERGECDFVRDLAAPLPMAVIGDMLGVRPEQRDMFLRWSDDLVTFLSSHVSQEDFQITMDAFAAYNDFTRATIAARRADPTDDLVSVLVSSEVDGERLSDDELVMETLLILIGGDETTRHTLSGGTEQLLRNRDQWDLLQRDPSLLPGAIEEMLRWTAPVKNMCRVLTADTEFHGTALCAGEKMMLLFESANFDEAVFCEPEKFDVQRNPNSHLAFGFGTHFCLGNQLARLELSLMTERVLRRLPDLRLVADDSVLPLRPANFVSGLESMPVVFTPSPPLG

CYP142 [4] = target: T2, CYP142; assay: biochemical
Mtb H37Rv [5] = assay: Extracellular Mtb growth on cholesterol, MABA MIC99; assay type: cell-based, Mycobacterium tuberculosis; conditions: cholesterol as sole carbon source, 2 weeks post-compound treatment, read-out: MABA-MIC99 (W2) H37Rv, cholesterol
Mtb CDC1551 [6] = assay: as above; assay type: cell-based, Mycobacterium tuberculosis; conditions: cholesterol as sole carbon source, 2 weeks post-compound treatment, read-out: MABA-MIC99 (W2) CDC1551, cholesterol
CYP125 [7] = target: T1, CYP125; assay: LC-MS substrate turnover assay (cholest-4-en-3-one); assay type: biochemical; conditions: for IC50: CYP125 0.5 μM, cholest-4-en-3-one 5 µM, LC-MS, read-out: CYP125A1 IC50; for Ki: estimated by Cheng-Prusoff, cholest-4-en-3-one Km CYP125 = 2.1 µM, read-out: CYP125A1 KI
Mtb CDC1551 [8] = assay: Depletion of intracellular ATP (BacTiter Glo), Mtb on cholesterol; assay type: cell-based; conditions: Mycobacterium tuberculosis, cholesterol as sole carbon source
Mtb H37Rv [9] = assay: as above; assay type: cell-based, Mycobacterium tuberculosis; conditions: cholesterol as sole carbon source
CYP124 = CYP124 (Mycobacterium tuberculosis, UniProt P9WPP3); conditions: fragment 1 mM, P450 4-6 µM; relative to DMSO (419 nm)
Sequence of CYP124 (P9WPP3 whole entry, the tested form may be a part): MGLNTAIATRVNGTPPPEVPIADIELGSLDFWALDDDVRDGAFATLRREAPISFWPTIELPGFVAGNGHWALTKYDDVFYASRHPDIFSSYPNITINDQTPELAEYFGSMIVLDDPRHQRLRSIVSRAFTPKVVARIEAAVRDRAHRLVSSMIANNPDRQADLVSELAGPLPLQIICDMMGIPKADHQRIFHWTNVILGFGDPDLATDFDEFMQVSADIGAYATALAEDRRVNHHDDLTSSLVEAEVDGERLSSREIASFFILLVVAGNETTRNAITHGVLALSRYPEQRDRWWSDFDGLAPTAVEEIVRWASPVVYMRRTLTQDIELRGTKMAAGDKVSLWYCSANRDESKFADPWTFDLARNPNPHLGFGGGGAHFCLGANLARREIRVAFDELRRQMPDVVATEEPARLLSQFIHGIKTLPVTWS

CYP143 = CYP143 (Mycobacterium tuberculosis, UniProt P9WPL3); conditions: fragment 1 mM, P450 4-6 µM; relative to DMSO (416 nm)
Sequence of CYP143 (P9WPL3 whole entry, the tested form may be a part): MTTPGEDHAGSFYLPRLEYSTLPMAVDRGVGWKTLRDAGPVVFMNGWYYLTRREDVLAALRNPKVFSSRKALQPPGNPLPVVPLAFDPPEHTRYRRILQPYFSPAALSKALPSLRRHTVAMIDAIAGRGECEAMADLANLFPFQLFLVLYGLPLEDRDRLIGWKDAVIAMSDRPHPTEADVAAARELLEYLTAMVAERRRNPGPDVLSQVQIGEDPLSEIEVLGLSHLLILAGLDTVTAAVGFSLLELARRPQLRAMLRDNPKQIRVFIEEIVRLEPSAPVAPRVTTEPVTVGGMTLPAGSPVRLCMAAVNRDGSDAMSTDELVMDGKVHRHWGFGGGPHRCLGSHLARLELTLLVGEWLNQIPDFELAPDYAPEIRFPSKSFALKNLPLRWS

CYP121 = CYP121 (Mycobacterium tuberculosis, UniProt P9WPP7); conditions: fragment 1 mM, P450 4-6 µM; relative to DMSO (417 nm)
Sequence of CYP121 (P9WPP7 whole entry, the tested form may be a part): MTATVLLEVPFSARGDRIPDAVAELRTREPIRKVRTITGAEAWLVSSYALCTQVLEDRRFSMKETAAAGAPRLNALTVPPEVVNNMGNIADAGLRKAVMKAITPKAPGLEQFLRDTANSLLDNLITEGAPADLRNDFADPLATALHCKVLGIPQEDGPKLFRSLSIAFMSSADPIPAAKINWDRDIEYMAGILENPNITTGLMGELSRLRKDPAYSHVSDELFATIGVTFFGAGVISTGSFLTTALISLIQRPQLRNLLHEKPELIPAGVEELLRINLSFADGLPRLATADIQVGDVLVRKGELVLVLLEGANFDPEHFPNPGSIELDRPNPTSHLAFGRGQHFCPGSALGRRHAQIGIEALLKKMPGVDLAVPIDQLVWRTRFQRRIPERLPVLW

CYP144 = CYP144 (Mycobacterium tuberculosis, UniProt P9WPL1); conditions: fragment 1 mM, P450 4-6 µM; relative to DMSO (421 nm)
Sequence of CYP144 (P9WPL1 whole entry, the tested form may be a part): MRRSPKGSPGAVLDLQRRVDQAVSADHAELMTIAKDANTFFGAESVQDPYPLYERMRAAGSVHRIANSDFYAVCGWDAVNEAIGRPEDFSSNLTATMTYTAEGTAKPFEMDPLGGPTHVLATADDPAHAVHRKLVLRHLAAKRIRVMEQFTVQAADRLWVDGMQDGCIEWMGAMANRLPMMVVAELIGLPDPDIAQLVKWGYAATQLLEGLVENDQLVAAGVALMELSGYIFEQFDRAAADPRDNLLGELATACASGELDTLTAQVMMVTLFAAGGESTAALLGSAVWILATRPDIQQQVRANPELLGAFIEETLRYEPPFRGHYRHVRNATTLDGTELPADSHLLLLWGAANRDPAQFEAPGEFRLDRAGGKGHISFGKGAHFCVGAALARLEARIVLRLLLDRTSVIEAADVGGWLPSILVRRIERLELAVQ

CYP126 = CYP126 (Mycobacterium tuberculosis, UniProt P9WPN9); conditions: fragment 1 mM, P450 4-6 µM; relative to DMSO (418 nm)
Sequence of CYP126 (P9WPN9 whole entry, the tested form may be a part): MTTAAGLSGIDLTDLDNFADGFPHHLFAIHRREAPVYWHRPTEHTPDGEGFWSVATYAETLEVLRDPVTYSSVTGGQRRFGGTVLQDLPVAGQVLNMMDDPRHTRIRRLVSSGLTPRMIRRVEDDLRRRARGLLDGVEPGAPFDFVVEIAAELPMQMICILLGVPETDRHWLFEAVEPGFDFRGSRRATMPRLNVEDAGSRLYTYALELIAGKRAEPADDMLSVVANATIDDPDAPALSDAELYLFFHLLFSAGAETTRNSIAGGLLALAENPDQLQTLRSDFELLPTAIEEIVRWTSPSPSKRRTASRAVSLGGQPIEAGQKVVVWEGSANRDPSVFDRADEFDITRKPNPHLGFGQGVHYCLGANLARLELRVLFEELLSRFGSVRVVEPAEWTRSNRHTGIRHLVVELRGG

[10] = Mycobacterium tuberculosis, H37RV, 336 h
[11] = Mycobacterium tuberculosis, CDC1551, 336 h
[12] = CDC1551, 168 h, 1 week post-compound treatment, read-out: ATP-IC50 (W1) CDC1551, cholesterol
[13] = CDC1551, 336 h, 2 weeks post-compound treatment, read-out: ATP-IC50 (W2) CDC1551, cholesterol
[14] = Mycobacterium tuberculosis, H37RV, 168 h, 1 week post-compound treatment, read-out: ATP-IC50 (W1) H37Rv, cholesterol
[15] = Mycobacterium tuberculosis, H37RV, 336 h, 2 weeks post-compound treatment, read-out: ATP-IC50 (W2) H37Rv, cholesterol

Compound | Kd (CYP125 [2]) | Kd (CYP142 [4]) | MIC99 (Mtb H37Rv [5]; [10]) | MIC99 (Mtb CDC1551 [6]; [11]) | IC50 (CYP125 [7]) | Ki (CYP125 [7]) | IC50 (Mtb CDC1551 [8]; [12]) | IC50 (Mtb CDC1551 [8]; [13]) | IC50 (Mtb H37Rv [9]; [14]) | IC50 (Mtb H37Rv [9]; [15]) | also measured
c1ccc(Cc2ccncc2)cc1 [1a] | 180 ± 6.7 µM |  |  |  |  |  |  |  |  |  | CYP125 Δλmax (nm) HS (CYP125 [1]; compound 100 µM, P450 5 µM, high spin population, '-' = no HS maxima present): 2 nm; CYP125 Δλmax (nm) LS (CYP125 [1]; compound 100 µM, P450 5 µM): 27 nm
CC(=O)Nc1ccc(Cc2ccncc2)cc1 [3f, N-(4-(Pyridin-4-ylmethyl)phenyl)acetamide] | 18 ± 0.56 µM | 1.4 ± 0.36 µM |  |  |  |  |  |  |  |  | CYP125 Δλmax (nm) LS (CYP125 [1]; compound 100 µM, P450 5 µM): 13 nm; CYP142 Δλmax (nm) (CYP142 [3]): 2 nm
CS(=O)(=O)Nc1ccc(Cc2ccncc2)cc1 [3g] | 0.23 ± 0.04 µM | 1.1 ± 0.14 µM |  |  |  |  |  |  |  |  | CYP125 Δλmax (nm) LS (CYP125 [1]; compound 100 µM, P450 5 µM): 30 nm; CYP125 LS/HS (CYP125 [1]; compound 100 µM, P450 5 µM, ratio of low spin to high spin CYP125): 2.7; CYP142 Δλmax (nm) (CYP142 [3]): 0 nm
O=C(Nc1ccc(Cc2ccncc2)cc1)c1ccccc1 [5a, N-(4-(Pyridin-4-ylmethyl)phenyl)benzamide] | 0.54 ± 0.22 µM | 1.1 ± 0.1 µM | 25 µM (≈ 7.21 µg/mL) | > 50 µM | 4.3 ± 0.5 µM | 1.3 µM | 19 µM | 38 µM | 19 µM | 38 µM | MIC99 (Mtb CDC1551 [6]): >50 µM
O=C(Nc1ccc(Nc2ccncc2)cc1)c1ccccc1 [5b, N-(4-(Pyridin-4-ylamino)phenyl)benzamide] | 11 ± 1.8 µM | 2.83 ± 0.001 µM |  |  |  |  |  |  |  |  | 
CN(c1ccncc1)c1ccc(NC(=O)c2ccccc2)cc1 [5c, N-(4-(Methyl(pyridin-4-yl)amino)phenyl)benzamide] | 7 ± 0.21 µM | 3.1 ± 0.18 µM | > 50 µM |  | 26 ± 2.4 µM | 7.7 µM |  |  | 9.4 µM | 19 µM | MIC99 (Mtb H37Rv [5]): >50 µM
O=C(NCc1ccc2[nH]ccc2c1)c1cccc(Cc2ccncc2)c1 [5e, N-((1H-Indol-5-yl)methyl)-3-(pyridin-4-ylmethyl)benzamide] | 4 ± 0.36 µM |  | 13 µM (≈ 4.44 µg/mL) | 6.3 µM (≈ 2.15 µg/mL) | 9.2 ± 0.89 µM | 2.7 µM | 0.07 µM | 19 µM | 2.3 µM | 19 µM | 
O=C(NCc1ccc2[nH]ccc2c1)c1cccc(Nc2ccncc2)c1 [5g, N-((1H-Indol-5-yl)methyl)-3-(pyridin-4-ylamino)benzamide] | 3.8 ± 0.18 µM |  | 13 µM (≈ 4.45 µg/mL) | 25 µM (≈ 8.56 µg/mL) | 25 ± 2.4 µM | 7.1 µM | 9.4 µM | 38 µM | < 5 µM | 9.4 µM | IC50 (Mtb H37Rv [9]; 1 week post-compound treatment, read-out: ATP-IC50 (W1) H37Rv, cholesterol): 4.7 µM
COc1ccc(CNc2cccc(Cc3ccncc3)c2)cc1 [5l, N-(4-Methoxybenzyl)-3-(pyridin-4-ylmethyl)aniline] | 6.4 ± 1.1 µM |  | 19 µM (≈ 5.78 µg/mL) |  | 18 ± 1.9 µM | 5.4 µM |  |  | 0.59 µM | 2.3 µM | 
COc1ccc(CNc2ccc(N(C)c3ccncc3)cc2)cc1 [5n, N^1-(4-Methoxybenzyl)-N^4-methyl-N^4-(pyridin-4-yl)benzene-1,4-diamine] | 2.9 ± 0.2 µM | 0.2 ± 0.01 µM | 50 µM (≈ 16 µg/mL) |  | 12 ± 1.2 µM | 3.6 µM |  |  | 4.7 µM | 9.4 µM | 
CS(=O)(=O)c1cccc(CNc2ccc(Cc3ccncc3)cc2)c1 [5p, N-(3-(Methylsulfonyl)benzyl)-4-(pyridin-4-ylmethyl)aniline] | 0.35 ± 0.19 µM |  | 13 µM (≈ 4.58 µg/mL) | 13 µM (≈ 4.58 µg/mL) | 10 ± 0.95 µM | 3.1 µM | 2.3 µM | 19 µM | 1.2 µM | 4.7 µM | 
Cc1ccc(S(N)(=O)=O)nc1 [compound 80] |  |  |  |  |  |  |  |  |  |  | Δλmax (nm) CYP125, fragment screen (CYP125 [1]; fragment 1 mM, P450 4-6 µM, Soret shift relative to DMSO (393 nm)): 0 nm; Δλmax (nm) CYP142, fragment screen (CYP142 [3]; fragment 1 mM, P450 4-6 µM, relative to DMSO (418.5 nm)): 0 nm; Δλmax (nm) CYP124, fragment screen (CYP124): 0 nm; Δλmax (nm) CYP143, fragment screen (CYP143): 0 nm; Δλmax (nm) CYP121, fragment screen (CYP121): 0 nm; Δλmax (nm) CYP144, fragment screen (CYP144): 0 nm; Δλmax (nm) CYP126, fragment screen (CYP126): 0 nm
